# Laboratory results: patent US11000033B2, “Ketone or oxime compound, and herbicide” (NISSAN CHEMICAL CORPORATION, priority 2014, dated 2021)
# Legend:
# Type in all cases: in vivo
# [1] = system: Scirpus juncoides; experiment: Test Example 1: herbicidal activity, application before weed generation in submerged conditions (symbol B); details: application herbicide amount 320 g/ha
# Procedure, shortened: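 0–5 visual score, 3 wk post-application. Submerged pots, alluvial soil, water 4 cm; seeds sown mixed, rice at 2.5 leaves transplanted. Emulsion diluted to predetermined dose, applied to water surface at sowing. 25–30 °C greenhouse.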
# [2] = system: Scirpus juncoides; experiment: Test Example 2: herbicidal activity, application during weed generation in submerged conditions (symbol B); details: Table 23; application herbicide amount 320 g/ha; grade 0-5 by criteria of Test Example 1
# Procedure, shortened: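 Seeds sown in flooded alluvial soil (4 cm water) were grown in a 25-30° C greenhouse. At the one- to two-leaf stage, diluted emulsion of compound was applied to the water surface at a predetermined rate. Effect was scored 3 weeks later.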
# [3] = system: Echinochloa crus-galli var. crus-galli; experiment: Test Example 4: herbicidal effect by soil treatment (symbol H); details: application herbicide amount 320 g/ha
# Procedure, shortened: (§1)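 Seeds were sown in sterilized diluvial soil, covered with about 1.5 cm of soil, and the soil surface was sprayed with a water-diluted emulsion of the compound at a predetermined rate. Plants grew in a greenhouse at 25° C. to 30° C.; effects were scored visually 3 weeks after application.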
# [4] = system: Avena fatua; experiment: Test Example 4: herbicidal effect by soil treatment (symbol I); details: application herbicide amount 320 g/ha
# Procedure, shortened: as §1
# [5] = system: Apera spica-venti; experiment: Test Example 4: herbicidal effect by soil treatment (symbol L); details: application herbicide amount 320 g/ha
# Procedure, shortened: as §1
# [6] = system: Amaranthus retroflexus; experiment: Test Example 4: herbicidal effect by soil treatment (symbol N); details: application herbicide amount 320 g/ha
# Procedure, shortened: as §1
# [7] = system: Galium spurium; experiment: Test Example 4: herbicidal effect by soil treatment (symbol Q); details: application herbicide amount 320 g/ha
# Procedure, shortened: as §1
# [8] = system: wheat; experiment: Test Example 4: effect on crop by soil treatment (symbol e); details: application herbicide amount 320 g/ha
# Procedure, shortened: (§2)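 Steps: fill box with sterilized diluvial soil; sow seed spot-like; cover with ~1.5 cm soil; grow in greenhouse (25° C. to 30° C.).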
# [9] = system: beet; experiment: Test Example 4: effect on crop by soil treatment (symbol f); details: application herbicide amount 320 g/ha
# Procedure, shortened: as §2
# [10] = system: rapeseed; experiment: Test Example 4: effect on crop by soil treatment (symbol g); details: application herbicide amount 320 g/ha
# Procedure, shortened: as §2
# [11] = system: Setaria viridis; experiment: Test Example 5: herbicidal effect by foliage application, plastic box (symbol G); details: 320 g/ha, 3 weeks after application
# Procedure, shortened: (§3)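 Effect is rated 3 weeks after a foliar spray of water-diluted emulsion concentrate at a predetermined herbicide amount. Plants had grown 14 days in a 25° C. to 30° C. greenhouse from seed in sterilized diluvial soil.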
# [12] = system: Avena fatua; experiment: Test Example 5: herbicidal effect by foliage application, plastic box (symbol I); details: 320 g/ha, 3 weeks after application
# Procedure, shortened: as §3
# [13] = system: Apera spica-venti; experiment: Test Example 5: herbicidal effect by foliage application, plastic box (symbol L); details: 320 g/ha, 3 weeks after application
# Procedure, shortened: as §3
# [14] = system: Chenopodium album; experiment: Test Example 5: herbicidal effect by foliage application, plastic box (symbol O); details: 320 g/ha, 3 weeks after application
# Procedure, shortened: as §3
# [15] = system: Galium spurium; experiment: Test Example 5: herbicidal effect by foliage application, plastic box (symbol Q); details: 320 g/ha, 3 weeks after application
# Procedure, shortened: as §3
# [16] = system: Veronica persica; experiment: Test Example 5: herbicidal effect by foliage application, plastic box (symbol R); details: 320 g/ha, 3 weeks after application
# Procedure, shortened: as §3
# [17] = system: soybean; experiment: Test Example 5: effect on crop by foliage application, plastic box (symbol d); details: 320 g/ha, 3 weeks after application
# Procedure, shortened: (§4)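 Crop and weed seeds sown in spots in sterilized diluvial soil in plastic boxes and covered with about 1.5 cm soil. Plants raised in a greenhouse at 25° C. to 30° C. for foliar application.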
# [18] = system: beet; experiment: Test Example 5: effect on crop by foliage application, plastic box (symbol f); details: 320 g/ha, 3 weeks after application
# Procedure, shortened: as §4
Compound,"Herbicidal effect grade, B: Scirpus juncoides [1]","Herbicidal effect grade, B: Scirpus juncoides [2]","Herbicidal effect grade, H: Echinochloa crus-galli var. crus-galli [3]","Herbicidal effect grade, I: Avena fatua [4]","Herbicidal effect grade, L: Apera spica-venti [5]","Herbicidal effect grade, N: Amaranthus retroflexus [6]","Herbicidal effect grade, Q: Galium spurium [7]","Effect on crop grade, e: wheat [8]","Effect on crop grade, f: beet [9]","Effect on crop grade, g: rapeseed [10]","G: Setaria viridis, herbicidal effect (criteria of Test Example 1) [11]","I: Avena fatua, herbicidal effect (criteria of Test Example 1) [12]","L: Apera spica-venti, herbicidal effect (criteria of Test Example 1) [13]","O: Chenopodium album, herbicidal effect (criteria of Test Example 1) [14]","Q: Galium spurium, herbicidal effect (criteria of Test Example 1) [15]","R: Veronica persica, herbicidal effect (criteria of Test Example 1) [16]","d: soybean, effect on crop (criteria of Test Example 1) [17]","f: beet, effect on crop (criteria of Test Example 1) [18]"
COc1cc(C)c(C2=C(O)CC(CC(C)=O)C2=O)c(C)c1 (stereo not drawn) [7-020],0 (Herbicidal ratio of 5% or lower (almost no effect)),0 (Herbicidal ratio of 5% or lower (almost no effect)),0 (Herbicidal ratio of 5% or lower (almost no effect)),0 (Herbicidal ratio of 5% or lower (almost no effect)),0 (Herbicidal ratio of 5% or lower (almost no effect)),0 (Herbicidal ratio of 5% or lower (almost no effect)),0 (Herbicidal ratio of 5% or lower (almost no effect)),0 (Herbicidal ratio of 5% or lower (almost no effect)),0 (Herbicidal ratio of 5% or lower (almost no effect)),0 (Herbicidal ratio of 5% or lower (almost no effect)),3 (Herbicidal ratio of 40% or higher and lower than 70%),0 (Herbicidal ratio of 5% or lower (almost no effect)),3 (Herbicidal ratio of 40% or higher and lower than 70%),0 (Herbicidal ratio of 5% or lower (almost no effect)),0 (Herbicidal ratio of 5% or lower (almost no effect)),0 (Herbicidal ratio of 5% or lower (almost no effect)),0 (Herbicidal ratio of 5% or lower (almost no effect)),0 (Herbicidal ratio of 5% or lower (almost no effect))
CC(=O)CC1CC(O)=C(c2c(C)cc(-n3cccn3)cc2C)C1=O (stereo not drawn) [7-024],1 (Herbicidal ratio of 5% or higher and lower than 20%),0 (Herbicidal ratio of 5% or lower (almost no effect)),0 (Herbicidal ratio of 5% or lower (almost no effect)),0 (Herbicidal ratio of 5% or lower (almost no effect)),0 (Herbicidal ratio of 5% or lower (almost no effect)),0 (Herbicidal ratio of 5% or lower (almost no effect)),0 (Herbicidal ratio of 5% or lower (almost no effect)),0 (Herbicidal ratio of 5% or lower (almost no effect)),0 (Herbicidal ratio of 5% or lower (almost no effect)),0 (Herbicidal ratio of 5% or lower (almost no effect)),0 (Herbicidal ratio of 5% or lower (almost no effect)),2 (Herbicidal ratio of 20% or higher and lower than 40%),1 (Herbicidal ratio of 5% or higher and lower than 20%),0 (Herbicidal ratio of 5% or lower (almost no effect)),0 (Herbicidal ratio of 5% or lower (almost no effect)),0 (Herbicidal ratio of 5% or lower (almost no effect)),0 (Herbicidal ratio of 5% or lower (almost no effect)),0 (Herbicidal ratio of 5% or lower (almost no effect))
"COc1cc(Br)cc(C)c1C1=C(O)CC(CC(C)=O)C1=O (stereo not drawn) [7-027, 2-(4-bromo-2-methoxy-6-methylphenyl)-3-hydroxy-5-(2-oxopropyl)cyclopent-2-enone]",0 (Herbicidal ratio of 5% or lower (almost no effect)),0 (Herbicidal ratio of 5% or lower (almost no effect)),5 (Herbicidal ratio of 90% or more (almost completely withered)),0 (Herbicidal ratio of 5% or lower (almost no effect)),5 (Herbicidal ratio of 90% or more (almost completely withered)),0 (Herbicidal ratio of 5% or lower (almost no effect)),0 (Herbicidal ratio of 5% or lower (almost no effect)),2 (Herbicidal ratio of 20% or higher and lower than 40%),0 (Herbicidal ratio of 5% or lower (almost no effect)),0 (Herbicidal ratio of 5% or lower (almost no effect)),5 (Herbicidal ratio of 90% or more (almost completely withered)),5 (Herbicidal ratio of 90% or more (almost completely withered)),5 (Herbicidal ratio of 90% or more (almost completely withered)),0 (Herbicidal ratio of 5% or lower (almost no effect)),0 (Herbicidal ratio of 5% or lower (almost no effect)),0 (Herbicidal ratio of 5% or lower (almost no effect)),0 (Herbicidal ratio of 5% or lower (almost no effect)),0 (Herbicidal ratio of 5% or lower (almost no effect))
